The values that follow are results of earlier work, collected in patent publication US11590237B2, “Pharmaceutical formulation comprising incretin-insulin conjugates” (Merck Sharp & Dohme Corp., priority 2017, dated 2023).

The conditions of the data set: literature data [21].

`CCCCCCCCCCCCCCCC(=O)N[C@@H](CCC(=O)NCCCC[C@H](NC(=O)[C@H](C)NC(=O)[C@H](C)NC(=O)[C@H](CCC(N)=O)NC(=O)CNC(=O)[C@H](CCC(=O)O)NC(=O)[C@H](CC(C)C)NC(=O)[C@H](Cc1ccc(O)cc1)NC(=O)[C@H](CO)NC(=O)[C@H](CO)NC(=O)[C@@H](NC(=O)[C@H](CC(=O)O)NC(=O)[C@H](CO)NC(=O)[C@@H](NC(=O)[C@H](Cc1ccccc1)NC(=O)[C@@H](NC(=O)CNC(=O)[C@H](CCC(=O)O)NC(=O)[C@H](C)NC(=O)[C@@H](N)Cc1cnc[nH]1)[C@@H](C)O)[C@@H](C)O)C(C)C)C(=O)N[C@@H](CCC(=O)O)C(=O)N[C@@H](Cc1ccccc1)C(=O)N[C@H](C(=O)N[C@@H](C)C(=O)N[C@@H](Cc1c[nH]c2ccccc12)C(=O)N[C@@H](CC(C)C)C(=O)N[C@H](C(=O)N[C@@H](CCCNC(=N)N)C(=O)NCC(=O)N[C@@H](CCCNC(=N)N)C(=O)NCC(=O)O)C(C)C)[C@@H](C)CC)C(=O)O` [liraglutide]: the “Number of monomers in oligomers” value is reported as 6-12 monomers.
